Data on 2 molecules can be found in US4180677A, “Novel prostaglandins” (American Cyanamid Company, priority 1977, dated 1979).

Structures are written as SMILES.

Broadly, the ED50 is the midpoint of the dose-response relation.

The test system of test [1] is bronchospasms elicited by 5-hydroxytryptamine. The test can be described thus: Bronchodilator activity (Konzett assay), spasmogen 5-hydroxytryptamine. It counts as in vivo, guinea pig. The note with it: Cavia porcellus; guinea pigs, spasmogen 5-hydroxytryptamine i.v.; three logarithmic cumulative intravenous doses. The procedure:
(§1) Bronchodilator activity was determined in guinea pigs against bronchospasms elicited by intravenous injections of 5-hydroxytryptamine, histamine or acetylcholine by the Konzett procedure. [See J. Lulling, P. Lievens, F. El Sayed and J. Prignot, Arzneimittel-Forschung, 18, 995 (1968).]
(§2) In the Table which follows bronchodilator activity for representative compounds of this invention against one or more of three spasmogenic agents is expressed as an ED50 determined from the results obtained with three logarithemic cumulative intravenous doses.

The subject of test [2] is ulcerogenic properties of indomethacin. In words: Protection against indomethacin-induced ulcers (oral gavage). The class given is in vivo, rat. Particulars: rats, indomethacin 20 mg./kg. s.c., score 0 normal to 4 many ulcers. The procedure:
The compounds of this invention provide protection against the ulcerogenic properties of indomethacin. This assay was carried out in the following manner.
Rats were starved for 48 hours (water was given ad libitum). Indomethacin (20 mg./kg. of body weight) was administered by the subcutaneous route and one-half the dose of the test compound was administered by gavage at the same time. After three hours, the second half of the test compound was administered also be gavage. Five hours after the administration of indomethacin the animals were decapitated and the stomachs removed. The stomachs were washed with distilled water, blotted on gauze, cut along the larger curvature, and the contents rinsed with distilled water. The stomachs were spread out, pinned on a cork and visualized under magnifying glass for ulcers. The criteria for scoring of ulcers was as previously reported. [Abdel-Galil et al. Brit. J. Pharmac. Chemotherapy 33:1-14 (1968)].
1-Petechial hemorrhage or pin point ulder
3 Many ulcers, a few large
4-Many ulcers, mainly large
Control animals treated with indomethacin but not test compound consistenly give scores of about 3.0. Control animals treated with neither indomethacin nor test compound gives scores of about 0.5-0.8. Compounds producing a lowering of the control score by 0.5 or more are considered to be active.

The subject of test [3] is bronchospasms elicited by histamine. In words: Bronchodilator activity (Konzett assay), spasmogen histamine. The class given is in vivo, guinea pig. Particulars: Cavia porcellus; guinea pigs, spasmogen histamine i.v.; three logarithmic cumulative intravenous doses. The procedure:
as §1, §2

For test [4], the system named is bronchospasms elicited by acetylcholine. The test can be described thus: Bronchodilator activity (Konzett assay), spasmogen acetylcholine. It counts as in vivo, guinea pig. The note with it: Cavia porcellus; guinea pigs, spasmogen acetylcholine i.v.; three logarithmic cumulative intravenous doses. As to the method:
as §1, §2

For `O=C(O)CCCCCC[C@H]1C(=O)CC[C@@H]1/C=C/[C@H](O)CC1CCCC1` (relative stereo) [9-oxo-15-epi-hydroxy-17,20-methano-13-trans-prostenoic acid], the ED50 in test [1] was 3.2 mg/kg; in test [3], 0.206 mg/kg; in test [4], 3.2 mg/kg. Also, the “Score, treated (ulcer score)” value in test [2] (total oral dose 25.0 mg./kg. of body weight, control score 3.0) is on record as 1.7.

Regarding `O=C(O)CCCCCC[C@H]1C(=O)CC[C@@H]1/C=C/[C@@H](O)CC1CCCC1` (relative stereo) [9-oxo-15-hydroxy-17,20-methano-13-trans-prostenoic acid], the ED50 in test [1] was found to be 0.0063 mg/kg; in test [3], 0.0014 mg/kg; in test [4], 3.2 mg/kg. Moreover, the “Score, treated (ulcer score)” value in test [2] (total oral dose 12.5 mg./kg. of body weight, control score 2.8) is on record as 1.8.
